# Reference: publication PMC3486876 (PLoS Neglected Tropical Diseases, 2012)
# “And” between values parts separate entries of the source, which are not always exact repeats. Equal values may be shown once. Marks after values point to notes of the source that are not given here.
# Key:
# [1] = molecular target: T1, rat α1β2γ2 GABA(A) receptor (Rattus norvegicus, UniProt P18508+P62813+P63138); assay: Two-electrode voltage-clamp of GABA(A) receptor expressed in Xenopus laevis oocytes; assay type: cell-based
# T1 construct: expressed in transfected cells; host or cells: Xenopus laevis oocytes injected with cRNA (constructs a gift from Dr Erwin Sigel)
# T1 sequence (P62813 28-455): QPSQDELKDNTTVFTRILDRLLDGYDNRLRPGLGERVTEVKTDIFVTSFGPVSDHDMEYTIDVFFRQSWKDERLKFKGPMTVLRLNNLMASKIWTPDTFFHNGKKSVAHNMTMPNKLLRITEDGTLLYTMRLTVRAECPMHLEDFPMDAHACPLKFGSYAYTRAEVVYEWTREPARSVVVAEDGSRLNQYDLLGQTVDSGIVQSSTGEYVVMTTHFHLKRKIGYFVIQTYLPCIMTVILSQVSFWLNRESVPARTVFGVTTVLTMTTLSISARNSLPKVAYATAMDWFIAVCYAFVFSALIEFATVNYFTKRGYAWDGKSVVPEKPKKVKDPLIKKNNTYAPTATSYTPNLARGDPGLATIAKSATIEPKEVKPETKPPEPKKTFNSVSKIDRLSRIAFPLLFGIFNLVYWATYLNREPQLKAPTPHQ
# T1 sequence (P63138 25-474 limits assumed): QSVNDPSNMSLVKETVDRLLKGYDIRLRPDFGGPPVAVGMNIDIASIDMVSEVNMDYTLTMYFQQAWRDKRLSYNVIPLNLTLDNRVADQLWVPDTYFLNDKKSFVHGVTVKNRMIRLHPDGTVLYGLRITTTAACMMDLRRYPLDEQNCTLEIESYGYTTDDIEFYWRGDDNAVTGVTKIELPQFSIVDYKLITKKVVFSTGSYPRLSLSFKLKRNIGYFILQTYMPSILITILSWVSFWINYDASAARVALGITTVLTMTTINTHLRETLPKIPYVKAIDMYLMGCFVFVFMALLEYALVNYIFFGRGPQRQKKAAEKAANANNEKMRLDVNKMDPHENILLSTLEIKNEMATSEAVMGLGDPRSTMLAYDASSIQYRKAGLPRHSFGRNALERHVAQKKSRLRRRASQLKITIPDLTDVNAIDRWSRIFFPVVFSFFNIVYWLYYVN
# T1 sequence (P18508 39-466): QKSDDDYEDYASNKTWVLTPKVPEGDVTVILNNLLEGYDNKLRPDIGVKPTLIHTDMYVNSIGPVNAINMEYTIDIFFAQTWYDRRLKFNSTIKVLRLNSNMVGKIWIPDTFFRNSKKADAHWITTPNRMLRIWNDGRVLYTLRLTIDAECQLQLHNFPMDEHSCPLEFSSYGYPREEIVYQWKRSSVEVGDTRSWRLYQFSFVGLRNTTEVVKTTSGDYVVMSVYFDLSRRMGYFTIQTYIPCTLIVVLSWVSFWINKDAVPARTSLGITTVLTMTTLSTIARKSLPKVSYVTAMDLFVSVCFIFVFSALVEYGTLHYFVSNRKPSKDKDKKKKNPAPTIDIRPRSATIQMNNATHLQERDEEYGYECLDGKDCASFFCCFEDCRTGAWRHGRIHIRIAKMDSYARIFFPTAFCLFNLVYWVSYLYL
# Procedure: Oocytes from X. laevis, injected with foreign cDNA of the receptor of choice, are a commonly used tool for studying the activity of plasma membrane receptors. […] Isolation of oocytes from the frogs, defolliculation, culturing of the oocytes and injection of cRNA were performed as described previously. Oocytes were injected with 46 nl of RNA solution, with RNA coding for α1, β2 and γ2 subunits at a ratio of 10∶10∶50 nM [30]. The injected oocytes were incubated in modified Barth's solution [90 mM NaCl, 3 mM KCl, 0.82 mM MgSO4, 0.41 mM CaCl2, 0.34 mM Ca(NO3)2, 100 U/ml penicillin, 100 µg/ml streptomycin and 100 µg/ml kanamycin, 5 mM HEPES pH 7.6] at 18°C for approximately 36 h before the measurements to ensure the expression of a functional receptor.
# Electrophysiological experiments were performed by the two-electrode voltage-clamp method. Measurements were done in ND96 medium containing 96 mM NaCl, 2 mM KCl, 1 mM MgCl2, 1.8 mM CaCl2 and 5 mM HEPES, pH 7.5, at a holding potential of −80 mV. Currents were measured using a custom-made two-electrode voltage clamp amplifier in combination with an XY recorder (90% response time, 0.1 s). The intracellular electrodes were filled with 3 M KCl (resistance of 0.5–1.5 MΩ). […] The perfusion solution (6 ml/min) was applied through a glass capillary with an inner diameter of 1.35 mm. […] The modulatory compounds (IVM and MOX) were first dissolved in DMSO at 20 mM and then diluted in ND96 to the final concentration.
# Concentration ranges used were: IVM: 0.5 nM–10 µM; MOX: 1 nM–5 µM.
# A washout period of 5 min between each agonist application was introduced, allowing receptors to fully recover from desensitization. The perfusion system was cleaned, after application of MLs, between each experiment by washing with 10% DMSO in ND96 to avoid contamination. Three or four different batches of oocytes were used to collect data for each analysis.
# All experiments were conducted at least in triplicate. Differences in ML tissue concentrations were analyzed by one-way analysis of variance (ANOVA) with a Tukey post-test and are expressed as mean ± standard deviation (S.D.). […] Half-maximal concentrations (EC50), slope factors (Hill coefficients, nH) and maximal potentiation values for ML-induced activation of current were obtained using the Hill equation. Statistical analysis was performed using unpaired t-tests with Welch's correction to allow for differences in variances (GraphPad Instat, San Diego, CA, USA). Differences were considered statistically significant when p<0.05.
# [2] = Drug concentration in plasma and brain (HPLC) in wild-type mice; assay type: in vivo, mouse; details: 24 h post-treatment; for Brain concentration at LD50: determined graphically from Figure 3B; for Brain-to-plasma ratio (slope of brain vs plasma concentration): increasing doses
# Procedure: (§1) Mice were anesthetized 2 h or 24 h after administration with isoflurane and heparinized blood samples were collected from the orbital sinus vein. Immediately thereafter, mice were sacrificed by cervical dislocation and brains were rapidly removed. Blood samples were centrifuged at 1500 g for 10 min at 4°C and the plasma fraction was collected and stored at −20°C until analysis. The brains were washed in saline solution and frozen at −20°C until analysis.
# (§2) ML concentrations were determined in plasma and brain by high performance liquid chromatography (HPLC) with fluorescence detection according to previously described and validated methods, [25]. In brief, plasma and tissues were homogenised in acetonitrile (1∶1 v/v or 1∶2 v/w, respectively). Samples were centrifuged at 2000 g and the supernatant applied to a Supelco C18 cartridge (Supelco Inc., Bellefonte, PA, USA) by using automated solid phase extraction (SPE). […] The eluate was evaporated and the dry extract was processed to obtain a fluorophore derivative by dissolving it in 1N-methylimidazole and trifluoroacetic anhydride solutions. Samples were injected into the HPLC system (PU980 pump, Jasko, Tokyo, Japan; 360 automatic injector, Kontron, Paris, France; RF-551 fluorescence detector, Shimadzu, Kyoto, Japan). For IVM and MOX a Supelcosil LC18 column (250×4.6 mm, 5 µm, Supelco, Bellefonte, PA, USA) was used with acetic acid (0.2% in water)∶methanol∶acetonitrile (4∶40∶56, v/v/v) as mobile phase.
# [3] = test system: P-gp-deficient dogs; details: cited from earlier work
# [4] = test system: P-gp; parameters: method as in PMID 17134887; details: cited from earlier work
# [5] = Drug concentration in plasma and brain (HPLC) in Mdr1ab(−/−) mice; assay type: in vivo, mouse; details: 0.23 µmol/kg SC
# Procedure: For drug plasma concentration and brain accumulation assessment, Mdr1ab(−/−) mice were injected subcutaneously with an equivalent molar dose rate for both MLs in Mdr1ab(−/−) mice (6 animals per group): 0.23 µmol/kg, corresponding to 0.20 mg/kg and 0.15 mg/kg for IVM and MOX, respectively. Mice were sacrificed at 2 or 24 h after treatment.
# as §1, §2
# [6] = test system: Mdr1ab(−/−) mice; assay: Neurological symptoms after subcutaneous administration; assay type: in vivo, mouse
# Procedure: For acute toxicity experiments, Mdr1ab(−/−) mice (2–8 per dose rate) were injected subcutaneously with drug solutions at dose rates ranging from 0.1–1.75 mg/kg bw (0.11–2.0 µmol/kg bw) for IVM and 0.2–8.2 mg/kg bw (0.31–12.9 µmol/kg bw) for MOX. […] Mice were euthanized when severe tremors or ataxia were noted.
# [7] = test system: humans; parameters: method as in clinicaltrials.gov NCT00856362, NCT00300768, NCT00790998; details: approximately 1,700 people; ref clinicaltrials.gov NCT00856362, NCT00300768, NCT00790998; cited from earlier work
# [8] = no reference given; cited from earlier work
# [9] = potentiation of current evoked by 2 µM GABA (EC10)
smiles,measurement,setting,value
CO/N=C1\C[C@]2(C[C@@H]3C[C@@H](C/C=C(\C)C[C@@H](C)/C=C/C=C4\CO[C@@H]5[C@H](O)C(C)=C[C@@H](C(=O)O3)[C@]45O)O2)O[C@H](/C(C)=C/C(C)C)[C@H]1C [Moxidectin],EC50,[1],11.8 ± 9.2 nM
same,Concentration to reach Emax,[1]; [9],0.66 ^c µM
same,Hill slope,[1]; [9],0.34±0.56
same,Hill slope,"[1]; potentiation of current evoked by 2 µM GABA (EC10), listed as MOX",0.34±0.56 and 0.34
same,Emax,[1]; read-out: Emax (maximum potentiation relative to GABA alone),257 ± 40.6%
same,Brain concentration at LD50,[2],740–1380 ^d pmol/g
same,Brain concentration at LD50,[2]; listed as MOX,740 to 1380 pmol/g
same,Brain-to-plasma ratio (slope of brain vs plasma concentration),[2],0.09 (R^2 = 0.984) ^e ml/g
same,Brain-to-plasma ratio (slope of brain vs plasma concentration),[2]; listed as MOX,0.09 mL/g
same,Dose safely used,"[3]; P-gp-deficient Collie dogs, spot-on application",up to 32.5 mg/kg
same,Signs of toxicosis,"[3]; P-gp-deficient dogs sensitive to IVM, 100 µg/kg daily for 7 days",did not produce signs of toxicosis
same,Toxicological signs,"[3]; dogs sensitive to 120 µg/kg oral IVM, similar molar dose rate, oral",did not produce any toxicological signs
same,"Effectiveness in inhibiting transport activity by P-gp, fold less than IVM",[4],10 fold
same,Brain-to-plasma concentration ratio,[5]; 2 h,0.3 ± 0.1 mL/g
same,Drug concentration in brain,[5]; 2 h,18.8 ± 2.8 pmol/g
same,Drug concentration in brain,"[5]; 2 h, listed as MOX",18.8 ± 2.8 pmol/g
same,Brain-to-plasma concentration ratio,[5]; 24 h,2.2 ± 0.7 mL/g
same,Drug concentration in brain,[5]; 24 h,93.0 ± 28.9 pmol/g
same,Drug concentration in plasma,[5]; 24 h,42.8 ± 9.3 nM
same,Brain-to-plasma concentration ratio,"[5]; 24 h, listed as MOX",2.2 ± 0.7 mL/g
same,concentration at 2 h,"[5]; mouse, plasma, 2 h",60 ± 14.5 nM
same,concentration at 24 h,"[5]; mouse, plasma, 24 h",42.8 ± 9.3 nM
same,Toxicity,[6]; 0.46 µmol/kg SC (same dose rate as IVM),did not show any toxicity
same,Neurological symptoms observed,"[6]; 2 µmol/kg SC, 1 h post-treatment",Visually normal
same,Neurological symptoms observed,"[6]; 2 µmol/kg SC, 2 h post-treatment (ditto marks to 4 h; transient), listed as MOX",rapid breathing was transiently observed
same,Neurological symptoms observed,"[6]; 2 µmol/kg SC, 5 h post-treatment (ditto marks to 14 d)",Visually normal
same,Neurological symptoms observed,"[6]; 2.6 µmol/kg SC, 1 h post-treatment (ditto marks to 3 h)",Visually normal
same,Neurological symptoms observed,"[6]; 2.6 µmol/kg SC, 4 h post-treatment (ditto marks to 8 h)",Sleepiness
same,Neurological symptoms observed,"[6]; 2.6 µmol/kg SC, 12 h post-treatment, mice euthanized",Ataxia ^c/Tremor ^d ^†
same,Neurological symptoms observed,"[6]; 4 µmol/kg SC, 1 h post-treatment",Balance problems
same,Neurological symptoms observed,"[6]; 4 µmol/kg SC, 2 h post-treatment (ditto marks to 4 h)",Sleepiness
same,Neurological symptoms observed,"[6]; 4 µmol/kg SC, 5 h post-treatment, mice euthanized",Ataxia ^c/Coma ^†
same,"Start of neurotoxic signs (lethargy, tremors and/or ataxia)","[6]; dose rates close to the respective LD50 (0.46 IVM, 2.3 MOX µmol/kg)",4 h
same,Serious adverse events,[7],without evidence of any serious adverse events
same,logP,[8],6
